Measurements published in US7998984B2, “2-pyridone derivatives for the treatment of disease or condition in which inhibition of neutrophil elastase activity is beneficial” (AstraZeneca AB, priority 2006, dated 2011).

Target: T1, Human Neutrophil Elastase (HNE) (Homo sapiens, UniProt P08246)
T1 construct: Human Neutrophil Elastase (HNE) purified from serum; purchased Calbiochem 324681; host or cells: purified from human serum (so in the source)
T1 sequence (P08246 30-247 limits assumed): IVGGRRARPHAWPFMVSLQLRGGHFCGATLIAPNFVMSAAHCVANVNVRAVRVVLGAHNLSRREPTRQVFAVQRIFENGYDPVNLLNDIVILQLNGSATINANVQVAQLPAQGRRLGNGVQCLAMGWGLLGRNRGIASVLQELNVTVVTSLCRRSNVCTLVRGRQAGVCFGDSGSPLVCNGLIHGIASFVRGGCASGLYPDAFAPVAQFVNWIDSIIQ
Test: Human Neutrophil Elastase Quenched-FRET Assay
Assay type: biochemical
Conditions: HNE 1.7 nM, substrate MeOSuc-AAPV-AMC 100 μM, 15 min pre-incubation, 30 min incubation at room temperature; read-out: Inhibition of Human Neutrophil Elastase IC50
Experimental: Human Neutrophil Elastase Quenched-FRET Assay
HNE was stored in 50 mM sodium acetate (NaOAc), 200 mM sodium chloride (NaCl), pH 5.5 with added 30% glycerol at −20° C. […] The substrate was stored in dimethyl sulphoxide (DMSO) at −20° C. […] The assay buffer constitution was: 100 mM Tris(hydroxymethyl)aminomethane (TRIS) (pH 7.5) and 500 mM NaCl. The enzyme and the compounds were incubated at room temperature for 15 minutes. Then 30 μl substrate in assay buffer was added. The assay was incubated for 30 minutes at room temperature. […] The assay was then stopped by adding 60 μl stop solution (140 mM acetic acid, 200 mM sodium monochloroacetate, 60 mM sodium acetate, pH 4.3).

IC50 [nM]	Compound
1.6	CNC(=O)c1cc(-c2ocnc2-c2ccc(Cl)cc2)c(C)n(-c2cccc(C(F)(F)F)c2)c1=O [Example 4, 5-[4-(4-Chlorophenyl)-1,3-oxazol-5-yl]-N,6-dimethyl-2-oxo-1-[3-(trifluoromethyl)phenyl]-1,2-dihydropyridine-3-carboxamide]
0.26	CNC(=O)c1cc(-c2nc(N)sc2-c2ccc(Cl)cc2)c(C)n(-c2cccc(C(F)(F)F)c2)c1=O [Example 3, 5-[2-Amino-5-(4-chlorophenyl)-1,3-thiazol-4-yl]-N,6-dimethyl-2-oxo-1-[3-(trifluoromethyl)-phenyl]-1,2-dihydropyridine-3-carboxamide]
0.93	CNC(=O)c1cc(-c2ccnn2-c2ccc(C#N)cc2)c(C)n(-c2ccc(F)c(Cl)c2)c1=O [Example 6, 1-(3-Chloro-4-fluorophenyl)-5-[1-(4-cyanophenyl)-1H-pyrazol-5-yl]-N,6-dimethyl-2-oxo-1,2-dihydropyridine-3-carboxamide]
0.26	CNC(=O)c1cc(-c2nc(N)sc2-c2ccc(C#N)cc2)c(C)n(-c2cccc(C(F)(F)F)c2)c1=O [Example 5, 5-[2-Amino-5-(4-cyanophenyl)-1,3-thiazol-4-yl]-N,6-dimethyl-2-oxo-1-[3-(trifluoromethyl)phenyl]-1,2-dihydropyridine-3-carboxamide]
